Laboratory results as given in ChEMBL document CHEMBL1201862, “PubChem BioAssay data set” (2004).
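Cells were grown in 96-well plates and exposed to each compound for 48 hours at five concentrations; endpoints were interpolated linearly between bracketing concentrations, or set to the highest concentration if not reached. GI50 = concentration required for 50% inhibition of growth.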 Activity calls are given as the source filed them. Cut-off read from the data, not from the text of the source: active = GI50 up to about 1.1 µM and inactive = higher.

Assays:
Test in all cases: NCI anticancer screen, dose series, 48 h
SNB-75 = tested on: SNB-75
HCT-15 = tested on: HCT-15
HOP-92 = tested on: HOP-92
OVCAR-4 = tested on: OVCAR-4
HCT-116 = tested on: HCT-116
NCI-H23 = tested on: NCI-H23
A498 = tested on: A498
SF-268 = tested on: SF-268
SK-MEL-28 = tested on: SK-MEL-28
LOX IMVI = tested on: LOX IMVI
KM12 = tested on: KM12
SW-620 = tested on: SW-620
MCF7 = tested on: MCF7
RPMI-8226 = tested on: RPMI-8226
UACC-62 = tested on: UACC-62
SN12C = tested on: SN12C
U-251 = tested on: U-251
UO-31 = tested on: UO-31
NCI-H522 = tested on: NCI-H522
NCI-H226 = tested on: NCI-H226

Compound | GI50 (SNB-75) | GI50 (HCT-15) [µM] | GI50 (HOP-92) | GI50 (OVCAR-4) | GI50 (HCT-116) | GI50 (NCI-H23) | GI50 (A498) | GI50 (SF-268) | GI50 (SK-MEL-28) | GI50 (LOX IMVI) | GI50 (KM12) | GI50 (SW-620) | GI50 (MCF7) | GI50 (RPMI-8226) | GI50 (UACC-62) | GI50 (SN12C) | GI50 (U-251) | GI50 (UO-31) | GI50 (NCI-H522) | GI50 (NCI-H226)
[O-]c1c[n+](-c2ccccc2)no1 | > 100 µM (inactive) | > 100 | > 100 µM (inactive) | > 100 µM (inactive) | > 100 µM (inactive) | > 100 µM (inactive) | > 100 µM (inactive) | > 100 µM (inactive) | > 100 µM (inactive) | > 100 µM (inactive) | > 100 µM (inactive) | > 100 µM (inactive) | > 100 µM (inactive) | > 100 µM (inactive) | > 100 µM (inactive) | > 100 µM (inactive) | > 100 µM (inactive) | > 100 µM (inactive) | – | –
CCOC(=O)CCC(NC(=O)c1ccc(Nc2nc3ccc(C(F)(F)F)cc3nc2-c2ccccc2)cc1)C(=O)OCC (stereo not given) | > 100 µM (inactive) | > 100 | 23.9 µM (inactive) | 34.2 µM (inactive) | > 100 µM (inactive) | 97.1 µM (inactive) | – | 55.6 µM (inactive) | 40.3 µM (inactive) | > 42 µM (inactive) | > 94 µM (inactive) | > 100 µM (inactive) | 40.8 µM (inactive) | > 84.1 µM (inactive) | 17.3 µM (inactive) | > 100 µM (inactive) | > 100 µM (inactive) | 31.5 µM (inactive) | 22.1 µM (inactive) | > 57.3 µM (inactive)
OCC1OC(OCC(O)C(O)C(O)C(/C=N/Nc2ccccc2)=N/Nc2ccccc2)C(O)C(O)C1O (stereo not given) | > 100 µM (inactive) | > 100 | 34.8 µM (inactive) | – | > 100 µM (inactive) | > 100 µM (inactive) | – | 26 µM (inactive) | > 100 µM (inactive) | 13.2 µM (inactive) | > 100 µM (inactive) | > 100 µM (inactive) | 63.1 µM (inactive) | > 100 µM (inactive) | – | > 100 µM (inactive) | > 100 µM (inactive) | 30.4 µM (inactive) | – | –
Cc1ccc(O)c(/N=N\c2c(O)cc(S(=O)(=O)O)c3ccccc23)c1 | – | 43.6 | > 100 µM (inactive) | 66.1 µM (inactive) | 25.5 µM (inactive) | – | – | > 100 µM (inactive) | 45.3 µM (inactive) | – | 21.8 µM (inactive) | 45.2 µM (inactive) | 41.1 µM (inactive) | 37.9 µM (inactive) | 25.7 µM (inactive) | – | 61.8 µM (inactive) | 17.3 µM (inactive) | – | 14.1 µM (inactive)
COC1=CC2C(c3cc4ccccc4n3S(=O)(=O)c3ccccc3)CC1CN2C(=O)OCc1ccccc1 (stereo not given) | 1.6 µM (inactive) | 31.1 | – | 26.1 µM (inactive) | 28.2 µM (inactive) | 29.7 µM (inactive) | – | – | – | 24.8 µM (inactive) | 26.9 µM (inactive) | 37.6 µM (inactive) | 39.9 µM (inactive) | 17.2 µM (inactive) | 29.8 µM (inactive) | 32 µM (inactive) | 37.3 µM (inactive) | 27.2 µM (inactive) | 18 µM (inactive) | 27.4 µM (inactive)
CCOc1cc(C2CC(c3ccc(NS(=O)(=O)c4cc([N+](=O)[O-])ccc4C)cc3)=NN2c2ccc([N+](=O)[O-])cc2[N+](=O)[O-])ccc1O (stereo not given) | 5.82 µM (inactive) | 19.3 | 10.4 µM (inactive) | 3.3 µM (inactive) | 8.65 µM (inactive) | 16.7 µM (inactive) | – | 11.1 µM (inactive) | 8 µM (inactive) | 16.6 µM (inactive) | 11 µM (inactive) | 21.8 µM (inactive) | 7.46 µM (inactive) | 11.3 µM (inactive) | – | 3.15 µM (inactive) | 9.48 µM (inactive) | 14.6 µM (inactive) | 10.4 µM (inactive) | 7.31 µM (inactive)
COC(=O)/C=C/N1CC1 | 3.48 µM (inactive) | > 10 | – | 4.82 µM (inactive) | > 10 µM (inactive) | > 10 µM (inactive) | – | > 10 µM (inactive) | > 10 µM (inactive) | – | > 10 µM (inactive) | – | > 10 µM (inactive) | > 10 µM (inactive) | > 10 µM (inactive) | > 10 µM (inactive) | 5.41 µM (inactive) | – | > 10 µM (inactive) | > 10 µM (inactive)
Cc1ccc2ccccc2c1NC1=NCCO1 | > 100 µM (inactive) | > 100 | 11.8 µM (inactive) | 94.6 µM (inactive) | 45.5 µM (inactive) | 90.4 µM (inactive) | – | > 100 µM (inactive) | > 100 µM (inactive) | – | 75.3 µM (inactive) | > 100 µM (inactive) | 82 µM (inactive) | 36.2 µM (inactive) | > 100 µM (inactive) | > 100 µM (inactive) | > 100 µM (inactive) | 27.7 µM (inactive) | – | 20.2 µM (inactive)
Oc1c(Cl)c(Cl)c(O)c(CCNc2nccs2)c1Cl | 20.5 µM (inactive) | 13.7 | 32.4 µM (inactive) | 38.1 µM (inactive) | 7.66 µM (inactive) | 18.4 µM (inactive) | – | 9.06 µM (inactive) | 20.5 µM (inactive) | – | 6.85 µM (inactive) | 3.3 µM (inactive) | 2.41 µM (inactive) | – | 17.1 µM (inactive) | 19 µM (inactive) | 11.3 µM (inactive) | 16.4 µM (inactive) | 2.02 µM (inactive) | –
Cc1ccc(C2SC(=N)Nc3c2c(C)nn3C(=O)c2ccncc2)cc1 (stereo not given) | > 10 µM (inactive) | > 10 | > 10 µM (inactive) | > 10 µM (inactive) | > 10 µM (inactive) | > 10 µM (inactive) | – | > 10 µM (inactive) | > 10 µM (inactive) | > 10 µM (inactive) | > 10 µM (inactive) | > 10 µM (inactive) | > 10 µM (inactive) | > 10 µM (inactive) | > 10 µM (inactive) | > 10 µM (inactive) | > 10 µM (inactive) | – | > 10 µM (inactive) | > 10 µM (inactive)
N#Cc1nc(C2SCCCS2)oc1N | < 0.01 µM (active) | > 100 | > 100 µM (inactive) | > 100 µM (inactive) | > 100 µM (inactive) | – | > 100 µM (inactive) | > 100 µM (inactive) | > 100 µM (inactive) | > 100 µM (inactive) | > 100 µM (inactive) | > 100 µM (inactive) | > 100 µM (inactive) | 95.7 µM (inactive) | > 100 µM (inactive) | > 100 µM (inactive) | > 100 µM (inactive) | – | – | –
O=C(/C=C/c1c(O)ccc2ccccc12)c1ccc2ccccc2c1 | > 100 µM (inactive) | > 100 | > 100 µM (inactive) | > 100 µM (inactive) | > 100 µM (inactive) | > 100 µM (inactive) | > 100 µM (inactive) | > 100 µM (inactive) | > 100 µM (inactive) | > 100 µM (inactive) | > 100 µM (inactive) | > 100 µM (inactive) | – | > 100 µM (inactive) | 59.8 µM (inactive) | > 100 µM (inactive) | > 100 µM (inactive) | > 100 µM (inactive) | > 100 µM (inactive) | > 100 µM (inactive)
CC(=O)NC(CCCNC(=O)OCc1ccccc1)C(=O)O (stereo not given) | 68.1 µM (inactive) | > 100 | > 100 µM (inactive) | 36.1 µM (inactive) | > 100 µM (inactive) | > 100 µM (inactive) | > 100 µM (inactive) | > 100 µM (inactive) | > 100 µM (inactive) | > 100 µM (inactive) | > 100 µM (inactive) | > 100 µM (inactive) | – | > 100 µM (inactive) | > 100 µM (inactive) | > 100 µM (inactive) | > 100 µM (inactive) | > 100 µM (inactive) | > 100 µM (inactive) | > 100 µM (inactive)
c1ccc(CC2COC(c3cccs3)=N2)cc1 (stereo not given) | 42.6 µM (inactive) | 38.3 | 21.4 µM (inactive) | > 100 µM (inactive) | 54.7 µM (inactive) | > 79.8 µM (inactive) | – | > 91 µM (inactive) | > 100 µM (inactive) | > 74.1 µM (inactive) | > 89.3 µM (inactive) | > 100 µM (inactive) | 17.9 µM (inactive) | > 70.3 µM (inactive) | > 100 µM (inactive) | > 64.4 µM (inactive) | 53 µM (inactive) | 64.1 µM (inactive) | > 84.7 µM (inactive) | 67.9 µM (inactive)
CCc1nc2ccccc2c(=O)n1/N=C(\N=N\c1ccc(Cl)cc1)c1ccccc1 | 14.6 µM (inactive) | 39.6 | 13.9 µM (inactive) | 23.5 µM (inactive) | 17.3 µM (inactive) | > 100 µM (inactive) | 26.7 µM (inactive) | 17.3 µM (inactive) | 32 µM (inactive) | 16.9 µM (inactive) | 18.2 µM (inactive) | 31.3 µM (inactive) | – | 30.7 µM (inactive) | 30.8 µM (inactive) | 36 µM (inactive) | 26.9 µM (inactive) | 19.5 µM (inactive) | 20.1 µM (inactive) | 21.8 µM (inactive)
Cc1ccc(C2(O)CS/C(=N\C34CC5CC(CC(C5)C3)C4)N2C(P(=O)(O)O)P(=O)(O)O)cc1 (stereo not given) | 38.6 µM (inactive) | > 100 | > 100 µM (inactive) | > 100 µM (inactive) | 37.1 µM (inactive) | > 100 µM (inactive) | 82.8 µM (inactive) | > 100 µM (inactive) | > 100 µM (inactive) | – | > 100 µM (inactive) | > 100 µM (inactive) | 65.2 µM (inactive) | > 100 µM (inactive) | – | 89.3 µM (inactive) | 38.6 µM (inactive) | > 100 µM (inactive) | – | > 100 µM (inactive)
